How the values were obtained:
[1] = Red blood cell and neutrophil counts after single dose in dogs; type: in vivo; settings: out to 15 days
[2] = system: CDK4/6; assay: CDK4/6 inhibition in vitro and in vivo studies
[3] = system: NCI-H69 mice small cell lung cancer (SCLC) xenograft; assay: NCI-H69 small cell lung cancer xenograft study; type: in vivo
Description: FIG. 61 is a graph of tumor size (cubic millimeters) vs time (days) for a small cell lung cancer xenograft model with various dosing regimens.

SMILES: CN1CCN(c2ccc(Nc3ncc4cc5n(c4n3)C3(CCCCC3)CNC5=O)nc2)CC1 [Compound 1, 2′-((5-(4-methylpiperazin-1-yl)pyridin-2-yl)amino)-7′,8′-dihydro-6′H-spiro[cyclohexane-1,9′-pyrazino[1′,2′:1,5]pyrrolo[2,3-d]pyrimidin]-6′-one]
- effect on red blood cells and neutrophils [1]: minimal
- CDK4/6 inhibitor characterisation [2]: highly potent and selective CDK4/6 inhibitor
- tumor growth suppression ([3]; Compound 1 100 mg/kg qdx5dx4, absence of Topotecan): did not have tumor grown suppression
- tumor suppression vs Topotecan alone ([3]; Compound 1 10, 50 or 100 mg/kg with Topotecan 0.6 mg/kg): significantly higher level of tumor suppression

— patent publication US20160220569A1, “CDK4/6 Inhibitor Dosage Formulations For The Protection Of Hematopoietic Stem And Progenitor Cells During Chemotherapy” (G1 Therapeutics, Inc., priority 2015, published 2016)
